The values that follow are results of earlier work, collected in patent US10945991B2, “Use and pharmaceutical composition for liver fibrosis prevention and/or treatment” (Cojet Biotech Inc., priority 2018, dated 2021).

Structures are written as SMILES.

The test system of this series is RAW 264.7 cell line.

As to `Cc1cc(O)c2c(c1O)OCO2` [MBDD, 5-methyl-benzol[1,3]dioxole-4,7-diol], the “NO production induced by lipopolysaccharide” value (RAW 264.7 cell line, effect may result from cytotoxicity) is listed as “reduce the NO production”. The cytotoxicity entry (RAW 264.7 cells) is “strong cytotoxicity”.
